Measurements taken from US9073940B2, “Tricyclic pyrazol amine derivatives” (MERCK SERONO SA, priority 2009, dated 2015).

Tested on: 4 PI3K isoforms (Human recombinant GST-PI3K)
Assay: PI3K scintillation proximity assay, best IC50 obtained with the four isoforms (alpha, beta, delta, gamma)
Type: biochemical
Details: best IC50 obtained with the four isoforms of PI3K; read-out: Best potency measured on the 4 PI3K isoforms

Row | SMILES | IC50 [nM]
1 | O=C(c1nn(C2CCN(C3CCOCC3)C2)c2c1CS(=O)(=O)c1c(F)cccc1-2)N1CCOCC1 (stereo not drawn) [Example 298, 6-Fluoro-3-(morpholin-4-ylcarbonyl)-1-[1-(tetrahydro-2H-pyran-4-yl)pyrrolidin-3-yl]-1,4-dihydrothiochromeno[4,3-c]pyrazole 5,5-dioxide] | 29
2 | O=C(c1nn(C2CCN(C3CCOCC3)C2)c2c1CS(=O)(=O)c1ccccc1-2)N1CCOCC1 (stereo not drawn) [Example 300, 3-(Morpholin-4-ylcarbonyl)-1-[1-(tetrahydro-2H-pyran-4-yl)pyrrolidin-3-yl]-1,4-dihydrothiochromeno[4,3-c]pyrazole 5,5-dioxide] | 77
3 | O=C(c1nn(C2CCCN(CCC3CCOCC3)C2)c2c1CS(=O)(=O)c1c(Cl)cccc1-2)N1CCOCC1 (stereo not drawn) [Example 301, 6-Chloro-3-(morpholin-4-ylcarbonyl)-1-{1-[2-(tetrahydro-2H-pyran-4-yl)ethyl]piperidin-3-yl}-1,4-dihydrothiochromeno[4,3-c]pyrazole 5.5-dioxide] | 38
4 | O=C(c1nn(C2CCN(CCC3CCOCC3)C2)c2c1CS(=O)(=O)c1c(F)cccc1-2)N1CCOCC1 (stereo not drawn) [Example 302, 6-Fluoro-3-(morpholin-4-ylcarbonyl)-1-{1-[2-(tetrahydro-2H-pyran-4-yl)ethyl]pyrrolidin-3-yl}-1,4-dihydrothiochromeno[4,3-c]pyrazole 5,5-dioxide] | 21
5 | O=C(c1nn(C2CCN(CC3CCOC3)C2)c2c1CS(=O)(=O)c1c(F)cccc1-2)N1CCOCC1 (stereo not drawn) [Example 304, 6-Fluoro-3-(morpholin-4-ylcarbonyl)-1-[1-(tetrahydrofuran-3-ylmethyl)pyrrolidin-3-yl]-1,4-dihydrothiochromeno[4,3-c]pyrazole 5,5-dioxide] | 57

Next, values leading:

Row | IC50 [nM] | SMILES
6 | 134 | Cc1nc(CN2CCCC(n3nc(C(=O)N4CCOCC4)c4c3-c3ccccc3S(=O)(=O)C4)C2)no1 (stereo not drawn) [Example 295, 1-{1-[(5-Methyl-1,2,4-oxadiazol-3-yl)methyl]piperidin-3-yl}-3-(morpholin-4-ylcarbonyl)-1,4-dihydrothiochromeno[4,3-c]pyrazole 5,5-dioxide]
7 | 90 | O=C(c1nn(C2CCCN(CCCn3cccc3)C2)c2c1CS(=O)(=O)c1ccccc1-2)N1CCOCC1 (stereo not drawn) [Example 296, 3-(Morpholin-4-ylcarbonyl)-1-{1-[3-(1H-pyrrol-1-yl)propyl]piperidin-3-yl}-1,4-dihydrothiochromeno[4,3-c]pyrazole 5,5-dioxide]
8 | 52 | O=C(c1nn(C2CCCN(CCn3ccnc3)C2)c2c1CS(=O)(=O)c1ccccc1-2)N1CCOCC1 (stereo not drawn) [Example 297, 1-{1-[2-(1H-Imidazol-1-yl)ethyl]piperidin-3-yl}-3-(morpholin-4-ylcarbonyl)-1,4-dihydrothiochromeno[4,3-c]pyrazole 5,5-dioxide]
9 | 871 | CC(=O)OCCN1CCC(n2nc(C(=O)N3CCOCC3)c3c2-c2ccccc2S(=O)(=O)C3)C1 (stereo not drawn) [Example 299, 2{3-[3-(Morpholin-4-ylcarbonyl)-5,5-dioxidothiochromeno[4,3-c]pyrazol-1(4H)-yl]pyrrolidin-1-yl)ethyl acetate]
10 | 353 | O=C(c1nn(C2CCN(CC3CCOC3)C2)c2c1CS(=O)(=O)c1ccccc1-2)N1CCOCC1 (stereo not drawn) [Example 303, 3-(Morpholin-4-ylcarbonyl)-1-[1-(tetrahydrofuran-3-ylmethyl)pyrrolidin-3-yl]-1,4-dihydrothiochromeno[4,3-c]pyrazole 5,5-dioxide]
11 | 11 | O=C(c1nn(C2CCCN(CC3CCOCC3)C2)c2c1CS(=O)(=O)c1ccccc1-2)N1CCOCC1 (stereo not drawn) [Example 305, 3-(morpholin-4-ylcarbonyl)-1-[1-(tetrahydro-2H-pyran-4-ylmethyl)piperidin-3-yl]-1,4-dihydrothiochromeno[4,3-c]pyrazole 5,5-dioxide]
12 | 120 | O=C(c1nn(C2CCN(CCN3CC[C@@H](F)C3)C2)c2c1CS(=O)(=O)c1ccccc1-2)N1CCOCC1 (stereo partly drawn) [Example 308, 1-(1-{2-[(3R)-3-Fluoropyrrolidin-1-yl]ethyl}pyrrolidin-3-yl)-3-(morpholin-4-ylcarbonyl)-1,4-dihydrothiochromeno[4,3-c]pyrazole 5,5-dioxide]
